Measured values: patent publication US20240000872A1, “NOVEL BACTERIOPHAGE THAT LYSES ACINETOBACTER GENUS BACTERIA HAVING RESISTANCE TO ANTIBIOTICS” (priority 2020, published 2024)

System: Acinetobacter baumannii strains
Test: Antibiotic susceptibility test (CLSI disk diffusion test method, read per CLSI 2016); as to antibiotic susceptibility S/I/R: key: ‘S’ means susceptible; ‘I’ means intermediate; ‘R’ means resistant; as to susceptibility category (S/I/R): key: ‘S’ means susceptible; ‘I’ means intermediate; ‘R’ means resistant
Type: cell-based
Parameters: antibiotic susceptibility test value / susceptibility test value (number given before S/I/R) / antibiotic susceptibility value: unit not given here

cortrimoxazole
R: susceptibility category (S/I/R) (host strain YMC16/01/R353) | antibiotic susceptibility S/I/R (host strain YMC16/01/R397) | susceptibility category (S/I/R) (host strain YMC16/01/R397) | antibiotic susceptibility S/I/R (host strain YMC16/01/R405) | susceptibility category (S/I/R) (host strain YMC16/01/R405) | antibiotic susceptibility S/I/R (host strain YMC16/03/R4461) | susceptibility category (S/I/R) (host strain YMC16/03/R4461) | antibiotic susceptibility S/I/R (host strain YMC16/05/R2210) | susceptibility category (S/I/R) (host strain YMC16/05/R2210) | antibiotic susceptibility S/I/R (host strain YMC16/07/R2512) | susceptibility category (S/I/R) (host strain YMC16/07/R2512) | antibiotic susceptibility S/I/R (host strain YMC16/09/R2471) | susceptibility category (S/I/R) (host strain YMC16/09/R2471) | antibiotic susceptibility S/I/R (host strain YMC16/10/R2537) | susceptibility category (S/I/R) (host strain YMC16/10/R2537) | antibiotic susceptibility S/I/R (host strain YMC16/12/B11422) | susceptibility category (S/I/R) (host strain YMC16/12/B11422) | antibiotic susceptibility S/I/R (host strain YMC16/12/B11449) | susceptibility category (S/I/R) (host strain YMC16/12/B11449) | antibiotic susceptibility S/I/R (host strain YMC16/12/B13325) | susceptibility category (S/I/R) (host strain YMC16/12/B13325) | antibiotic susceptibility S/I/R (host strain YMC16/12/P503) | susceptibility category (S/I/R) (host strain YMC16/12/P503) | antibiotic susceptibility S/I/R (host strain YMC16/12/R4637) | susceptibility category (S/I/R) (host strain YMC16/12/R4637) | antibiotic susceptibility S/I/R (host strain YMC17/01/B8053) | susceptibility category (S/I/R) (host strain YMC17/01/B8053) | antibiotic susceptibility S/I/R (host strain YMC17/01/B10087) | susceptibility category (S/I/R) (host strain YMC17/01/B10087) | antibiotic susceptibility S/I/R (host strain YMC17/01/B13454) | susceptibility category (S/I/R) (host strain YMC17/01/B13454) | antibiotic susceptibility S/I/R (host strain YMC17/01/P518) | susceptibility category (S/I/R) (host strain YMC17/01/P518) | antibiotic susceptibility S/I/R (host strain YMC17/01/R2812) | susceptibility category (S/I/R) (host strain YMC17/01/R2812) | antibiotic susceptibility S/I/R (host strain YMC17/02/B14) | susceptibility category (S/I/R) (host strain YMC17/02/B14) | antibiotic susceptibility S/I/R (host strain YMC17/02/B87) | susceptibility category (S/I/R) (host strain YMC17/02/B87) | antibiotic susceptibility S/I/R (host strain YMC17/02/B721) | susceptibility category (S/I/R) (host strain YMC17/02/B721) | antibiotic susceptibility S/I/R (host strain YMC17/02/B4039) | susceptibility category (S/I/R) (host strain YMC17/02/B4039) | antibiotic susceptibility S/I/R (host strain YMC17/02/B4520) | susceptibility category (S/I/R) (host strain YMC17/02/B4520) | antibiotic susceptibility S/I/R (host strain YMC17/02/B8414) | susceptibility category (S/I/R) (host strain YMC17/02/B8414) | antibiotic susceptibility S/I/R (host strain YMC17/02/R541) | susceptibility category (S/I/R) (host strain YMC17/02/R541) | antibiotic susceptibility S/I/R (host strain YMC17/02/R2392) | susceptibility category (S/I/R) (host strain YMC17/02/R2392) | antibiotic susceptibility S/I/R (host strain YMC17/03/B4730) | susceptibility category (S/I/R) (host strain YMC17/03/B4730) | antibiotic susceptibility S/I/R (host strain YMC17/03/B5000) | susceptibility category (S/I/R) (host strain YMC17/03/B5000) | antibiotic susceptibility S/I/R (host strain YMC17/03/P971) | susceptibility category (S/I/R) (host strain YMC17/03/P971) | antibiotic susceptibility S/I/R (host strain YMC17/03/R348) | susceptibility category (S/I/R) (host strain YMC17/03/R348) | antibiotic susceptibility S/I/R (host strain YMC17/03/R585) | susceptibility category (S/I/R) (host strain YMC17/03/R585) | antibiotic susceptibility S/I/R (host strain YMC17/03/R1888) | susceptibility category (S/I/R) (host strain YMC17/03/R1888) | antibiotic susceptibility S/I/R (host strain YMC17/03/R3279) | susceptibility category (S/I/R) (host strain YMC17/03/R3279) | antibiotic susceptibility S/I/R (host strain YMC17/03/R4077) | susceptibility category (S/I/R) (host strain YMC17/03/R4077) | antibiotic susceptibility S/I/R (host strain YMC17/03/R4607) | susceptibility category (S/I/R) (host strain YMC17/03/R4607) | antibiotic susceptibility S/I/R (host strain YMC17/04/R488) | susceptibility category (S/I/R) (host strain YMC17/04/R488) | antibiotic susceptibility S/I/R (host strain YMC17/04/R640) | susceptibility category (S/I/R) (host strain YMC17/04/R640) | antibiotic susceptibility S/I/R (host strain YMC/17/05/R1095) | susceptibility category (S/I/R) (host strain YMC/17/05/R1095)
20: antibiotic susceptibility value (host strain YMC16/01/R380) | susceptibility test value (number given before S/I/R) (host strain YMC16/01/R380) | antibiotic susceptibility value (host strain YMC17/01/B12075) | susceptibility test value (number given before S/I/R) (host strain YMC17/01/B12075) | antibiotic susceptibility value (host strain YMC17/02/B4864) | susceptibility test value (number given before S/I/R) (host strain YMC17/02/B4864) | antibiotic susceptibility value (host strain YMC17/02/P523) | susceptibility test value (number given before S/I/R) (host strain YMC17/02/P523)
320: antibiotic susceptibility value (host strain YMC16/01/R405) | susceptibility test value (number given before S/I/R) (host strain YMC16/01/R405) | antibiotic susceptibility value (host strain YMC16/03/R4461) | susceptibility test value (number given before S/I/R) (host strain YMC16/03/R4461) | antibiotic susceptibility value (host strain YMC16/05/R2210) | susceptibility test value (number given before S/I/R) (host strain YMC16/05/R2210) | antibiotic susceptibility value (host strain YMC16/07/R2512) | susceptibility test value (number given before S/I/R) (host strain YMC16/07/R2512) | antibiotic susceptibility value (host strain YMC16/12/B11449) | susceptibility test value (number given before S/I/R) (host strain YMC16/12/B11449) | antibiotic susceptibility value (host strain YMC16/12/B13325) | susceptibility test value (number given before S/I/R) (host strain YMC16/12/B13325) | antibiotic susceptibility value (host strain YMC16/12/P503) | susceptibility test value (number given before S/I/R) (host strain YMC16/12/P503) | antibiotic susceptibility value (host strain YMC16/12/R4637) | susceptibility test value (number given before S/I/R) (host strain YMC16/12/R4637) | antibiotic susceptibility value (host strain YMC17/01/B8053) | susceptibility test value (number given before S/I/R) (host strain YMC17/01/B8053) | antibiotic susceptibility value (host strain YMC17/01/R2812) | susceptibility test value (number given before S/I/R) (host strain YMC17/01/R2812) | antibiotic susceptibility value (host strain YMC17/02/B14) | susceptibility test value (number given before S/I/R) (host strain YMC17/02/B14) | antibiotic susceptibility value (host strain YMC17/02/B87) | susceptibility test value (number given before S/I/R) (host strain YMC17/02/B87) | antibiotic susceptibility value (host strain YMC17/02/B721) | susceptibility test value (number given before S/I/R) (host strain YMC17/02/B721) | antibiotic susceptibility value (host strain YMC17/02/B8414) | susceptibility test value (number given before S/I/R) (host strain YMC17/02/B8414) | antibiotic susceptibility value (host strain YMC17/02/R541) | susceptibility test value (number given before S/I/R) (host strain YMC17/02/R541) | antibiotic susceptibility value (host strain YMC17/02/R2392) | susceptibility test value (number given before S/I/R) (host strain YMC17/02/R2392) | antibiotic susceptibility value (host strain YMC17/03/B4730) | susceptibility test value (number given before S/I/R) (host strain YMC17/03/B4730) | antibiotic susceptibility value (host strain YMC17/03/B5000) | susceptibility test value (number given before S/I/R) (host strain YMC17/03/B5000) | antibiotic susceptibility value (host strain YMC17/03/P971) | susceptibility test value (number given before S/I/R) (host strain YMC17/03/P971) | antibiotic susceptibility value (host strain YMC17/03/R348) | susceptibility test value (number given before S/I/R) (host strain YMC17/03/R348) | antibiotic susceptibility value (host strain YMC17/03/R585) | susceptibility test value (number given before S/I/R) (host strain YMC17/03/R585) | antibiotic susceptibility value (host strain YMC17/03/R1888) | susceptibility test value (number given before S/I/R) (host strain YMC17/03/R1888) | antibiotic susceptibility value (host strain YMC17/03/R3279) | susceptibility test value (number given before S/I/R) (host strain YMC17/03/R3279) | antibiotic susceptibility value (host strain YMC17/03/R4077) | susceptibility test value (number given before S/I/R) (host strain YMC17/03/R4077) | antibiotic susceptibility value (host strain YMC17/03/R4607) | susceptibility test value (number given before S/I/R) (host strain YMC17/03/R4607) | antibiotic susceptibility value (host strain YMC17/04/R640) | susceptibility test value (number given before S/I/R) (host strain YMC17/04/R640) | antibiotic susceptibility value (host strain YMC/17/05/R1095) | susceptibility test value (number given before S/I/R) (host strain YMC/17/05/R1095)
S: antibiotic susceptibility S/I/R (host strain YMC16/01/R380) | susceptibility category (S/I/R) (host strain YMC16/01/R380) | antibiotic susceptibility S/I/R (host strain YMC17/01/B12075) | susceptibility category (S/I/R) (host strain YMC17/01/B12075) | antibiotic susceptibility S/I/R (host strain YMC17/02/B4864) | susceptibility category (S/I/R) (host strain YMC17/02/B4864) | antibiotic susceptibility S/I/R (host strain YMC17/02/P523) | susceptibility category (S/I/R) (host strain YMC17/02/P523)
160: antibiotic susceptibility value (host strain YMC16/01/R353) | susceptibility test value (number given before S/I/R) (host strain YMC16/01/R353) | antibiotic susceptibility value (host strain YMC16/01/R397) | susceptibility test value (number given before S/I/R) (host strain YMC16/01/R397) | antibiotic susceptibility value (host strain YMC16/09/R2471) | susceptibility test value (number given before S/I/R) (host strain YMC16/09/R2471) | antibiotic susceptibility value (host strain YMC16/10/R2537) | susceptibility test value (number given before S/I/R) (host strain YMC16/10/R2537) | antibiotic susceptibility value (host strain YMC16/12/B11422) | susceptibility test value (number given before S/I/R) (host strain YMC16/12/B11422) | antibiotic susceptibility value (host strain YMC17/01/B10087) | susceptibility test value (number given before S/I/R) (host strain YMC17/01/B10087) | antibiotic susceptibility value (host strain YMC17/01/B13454) | susceptibility test value (number given before S/I/R) (host strain YMC17/01/B13454) | antibiotic susceptibility value (host strain YMC17/01/P518) | susceptibility test value (number given before S/I/R) (host strain YMC17/01/P518) | antibiotic susceptibility value (host strain YMC17/02/B4520) | susceptibility test value (number given before S/I/R) (host strain YMC17/02/B4520) | antibiotic susceptibility value (host strain YMC17/04/R488) | susceptibility test value (number given before S/I/R) (host strain YMC17/04/R488)
80: antibiotic susceptibility value (host strain YMC17/02/B4039) | susceptibility test value (number given before S/I/R) (host strain YMC17/02/B4039)
